Laboratory results published in US5668152A, “Protein kinase C inhibitors” (priority 1995, dated 1997).
Entries after “also recorded” stand apart in the source; their conditions may differ. Where two headings read alike, the source gives them in different places.

How the values were obtained:
PKC isozymes = conditions: cited from earlier work
protein kinase C alpha = protein kinase C alpha (Homo sapiens, UniProt P17252); assay: PKC Enzyme assay, alpha isozyme; type: biochemical; conditions: PKC alpha; 30 μM ATP, 30° C., 10 minutes; read-out: IC50 α
protein kinase C beta-1 = protein kinase C beta-1 (Homo sapiens, UniProt P05771); assay: PKC Enzyme assay, beta I isozyme; type: biochemical; conditions: PKC beta-1; 30 μM ATP, 30° C., 10 minutes; read-out: IC50 β1
protein kinase C beta-2 = protein kinase C beta-2 (Homo sapiens, UniProt P05771); assay: PKC Enzyme assay, beta II isozyme; type: biochemical; conditions: PKC beta-2; 30 μM ATP, 30° C., 10 minutes; read-out: IC50 β2
protein kinase C gamma = protein kinase C gamma (Homo sapiens, UniProt P05129); assay: PKC Enzyme assay, gamma isozyme; type: biochemical; conditions: PKC gamma; 30 μM ATP, 30° C., 10 minutes; read-out: IC50 γ
protein kinase C delta = protein kinase C delta (Homo sapiens, UniProt Q05655); assay: biochemical; conditions: PKC delta; 30 μM ATP, 30° C., 10 minutes; read-out: IC50 δ
protein kinase C epsilon = biological target: T1, protein kinase C epsilon (Homo sapiens, UniProt Q02156); assay: PKC Enzyme assay, epsilon isozyme; type: biochemical; conditions: PKC epsilon; 30 μM ATP, 30° C., 10 minutes; read-out: IC50 ε
T1 sequence (Q02156 1-737): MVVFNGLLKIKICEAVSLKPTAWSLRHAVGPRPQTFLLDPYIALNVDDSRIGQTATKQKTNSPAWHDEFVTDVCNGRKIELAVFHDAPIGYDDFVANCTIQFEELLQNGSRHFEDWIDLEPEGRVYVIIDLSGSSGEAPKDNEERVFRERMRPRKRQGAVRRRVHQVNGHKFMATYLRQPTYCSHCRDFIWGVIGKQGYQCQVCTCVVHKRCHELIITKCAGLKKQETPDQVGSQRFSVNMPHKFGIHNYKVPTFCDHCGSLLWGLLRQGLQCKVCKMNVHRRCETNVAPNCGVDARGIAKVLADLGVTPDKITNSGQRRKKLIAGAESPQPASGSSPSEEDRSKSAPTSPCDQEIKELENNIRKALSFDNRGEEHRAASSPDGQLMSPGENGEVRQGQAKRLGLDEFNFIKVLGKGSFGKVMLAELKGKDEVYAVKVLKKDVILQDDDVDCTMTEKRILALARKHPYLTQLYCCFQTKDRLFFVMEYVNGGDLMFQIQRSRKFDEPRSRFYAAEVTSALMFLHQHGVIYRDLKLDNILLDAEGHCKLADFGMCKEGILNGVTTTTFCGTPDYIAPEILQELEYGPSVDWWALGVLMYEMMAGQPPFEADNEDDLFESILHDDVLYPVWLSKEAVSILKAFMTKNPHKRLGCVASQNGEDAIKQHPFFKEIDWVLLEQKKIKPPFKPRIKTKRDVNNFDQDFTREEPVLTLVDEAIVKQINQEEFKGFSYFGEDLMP

protein kinase C zeta = biological target: T2, protein kinase C zeta (Homo sapiens, UniProt Q05513); assay: PKC Enzyme assay, zeta isozyme; type: biochemical; conditions: PKC zeta; 30 μM ATP, 30° C., 10 minutes; read-out: IC50 ζ
T2 sequence (Q05513 1-592): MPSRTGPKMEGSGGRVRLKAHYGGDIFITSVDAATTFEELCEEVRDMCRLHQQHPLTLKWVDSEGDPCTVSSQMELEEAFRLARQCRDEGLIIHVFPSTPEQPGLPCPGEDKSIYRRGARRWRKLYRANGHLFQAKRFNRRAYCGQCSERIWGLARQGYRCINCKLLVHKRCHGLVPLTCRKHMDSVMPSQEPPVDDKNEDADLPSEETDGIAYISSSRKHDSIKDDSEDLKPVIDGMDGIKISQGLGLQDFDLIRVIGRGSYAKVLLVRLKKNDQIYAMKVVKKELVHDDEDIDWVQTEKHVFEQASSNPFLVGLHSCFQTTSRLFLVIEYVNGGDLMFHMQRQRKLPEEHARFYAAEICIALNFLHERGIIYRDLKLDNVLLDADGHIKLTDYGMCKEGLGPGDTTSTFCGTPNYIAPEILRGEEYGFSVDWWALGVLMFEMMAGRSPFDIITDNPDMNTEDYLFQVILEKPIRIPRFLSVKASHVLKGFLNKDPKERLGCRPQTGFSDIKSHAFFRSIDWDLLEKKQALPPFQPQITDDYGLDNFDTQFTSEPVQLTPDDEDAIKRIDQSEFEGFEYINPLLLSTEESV

protein kinase C eta = protein kinase C eta (Homo sapiens, UniProt P24723); assay: PKC Enzyme assay, eta isozyme; type: biochemical; conditions: PKC eta; 30 μM ATP, 30° C., 10 minutes; read-out: IC50 η
protein kinase C eta, sequence (P24723 whole entry): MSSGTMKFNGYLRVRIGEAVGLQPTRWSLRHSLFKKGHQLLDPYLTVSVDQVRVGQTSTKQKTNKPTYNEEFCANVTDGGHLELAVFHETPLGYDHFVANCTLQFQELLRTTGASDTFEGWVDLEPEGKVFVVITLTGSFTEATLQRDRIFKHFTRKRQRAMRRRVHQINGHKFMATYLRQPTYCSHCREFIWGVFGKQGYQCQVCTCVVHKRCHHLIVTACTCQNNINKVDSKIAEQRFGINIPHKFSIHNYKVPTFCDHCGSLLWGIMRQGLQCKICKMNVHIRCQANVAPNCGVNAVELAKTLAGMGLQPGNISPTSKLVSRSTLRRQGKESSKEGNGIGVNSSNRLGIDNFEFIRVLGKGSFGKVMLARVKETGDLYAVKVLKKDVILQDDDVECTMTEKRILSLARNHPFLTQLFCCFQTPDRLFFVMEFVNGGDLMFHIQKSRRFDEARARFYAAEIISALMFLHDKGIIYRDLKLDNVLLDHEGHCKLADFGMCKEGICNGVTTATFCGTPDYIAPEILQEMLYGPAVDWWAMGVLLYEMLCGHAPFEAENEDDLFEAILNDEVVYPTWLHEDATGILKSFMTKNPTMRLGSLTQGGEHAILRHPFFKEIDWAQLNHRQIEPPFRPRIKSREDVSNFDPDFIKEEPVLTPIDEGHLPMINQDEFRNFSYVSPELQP

protein kinase C beta-1, sequence (P05771 whole entry): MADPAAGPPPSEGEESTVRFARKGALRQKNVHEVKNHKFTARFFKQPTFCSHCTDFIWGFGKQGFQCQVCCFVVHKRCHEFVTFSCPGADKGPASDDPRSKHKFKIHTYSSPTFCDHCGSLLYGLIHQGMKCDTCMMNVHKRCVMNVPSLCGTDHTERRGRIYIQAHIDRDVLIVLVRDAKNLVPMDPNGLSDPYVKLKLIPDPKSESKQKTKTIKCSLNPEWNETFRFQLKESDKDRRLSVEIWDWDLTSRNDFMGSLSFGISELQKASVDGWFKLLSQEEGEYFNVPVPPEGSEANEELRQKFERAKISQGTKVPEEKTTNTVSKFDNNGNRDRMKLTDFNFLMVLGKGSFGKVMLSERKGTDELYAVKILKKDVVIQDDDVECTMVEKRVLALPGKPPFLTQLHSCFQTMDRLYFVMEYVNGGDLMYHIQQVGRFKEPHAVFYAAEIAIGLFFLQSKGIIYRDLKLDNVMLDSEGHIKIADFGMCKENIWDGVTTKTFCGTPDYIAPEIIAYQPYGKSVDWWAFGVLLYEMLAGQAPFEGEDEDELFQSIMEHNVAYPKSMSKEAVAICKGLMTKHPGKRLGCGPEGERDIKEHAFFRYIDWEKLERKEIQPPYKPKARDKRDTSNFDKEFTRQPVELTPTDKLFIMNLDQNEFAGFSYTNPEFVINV
protein kinase C delta, sequence (Q05655 whole entry): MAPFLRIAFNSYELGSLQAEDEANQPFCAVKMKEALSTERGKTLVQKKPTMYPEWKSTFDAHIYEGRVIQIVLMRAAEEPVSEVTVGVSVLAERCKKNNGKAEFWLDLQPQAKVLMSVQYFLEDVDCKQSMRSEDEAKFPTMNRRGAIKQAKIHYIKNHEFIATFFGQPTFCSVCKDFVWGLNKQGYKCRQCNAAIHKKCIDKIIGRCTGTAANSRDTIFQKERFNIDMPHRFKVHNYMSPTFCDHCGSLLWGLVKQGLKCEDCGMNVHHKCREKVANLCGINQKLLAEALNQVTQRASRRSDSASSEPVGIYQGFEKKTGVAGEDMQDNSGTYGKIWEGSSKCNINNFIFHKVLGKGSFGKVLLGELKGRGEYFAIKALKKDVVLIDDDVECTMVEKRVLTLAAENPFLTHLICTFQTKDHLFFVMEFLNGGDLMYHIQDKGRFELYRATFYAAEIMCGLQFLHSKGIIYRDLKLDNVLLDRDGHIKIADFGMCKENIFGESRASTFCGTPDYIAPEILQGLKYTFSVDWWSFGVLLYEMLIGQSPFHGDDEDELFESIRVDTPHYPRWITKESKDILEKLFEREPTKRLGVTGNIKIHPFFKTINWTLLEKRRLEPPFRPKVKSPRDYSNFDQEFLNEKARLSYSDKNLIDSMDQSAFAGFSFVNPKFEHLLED
protein kinase C beta-2, sequence (P05771 1-673 isoform P05771-2): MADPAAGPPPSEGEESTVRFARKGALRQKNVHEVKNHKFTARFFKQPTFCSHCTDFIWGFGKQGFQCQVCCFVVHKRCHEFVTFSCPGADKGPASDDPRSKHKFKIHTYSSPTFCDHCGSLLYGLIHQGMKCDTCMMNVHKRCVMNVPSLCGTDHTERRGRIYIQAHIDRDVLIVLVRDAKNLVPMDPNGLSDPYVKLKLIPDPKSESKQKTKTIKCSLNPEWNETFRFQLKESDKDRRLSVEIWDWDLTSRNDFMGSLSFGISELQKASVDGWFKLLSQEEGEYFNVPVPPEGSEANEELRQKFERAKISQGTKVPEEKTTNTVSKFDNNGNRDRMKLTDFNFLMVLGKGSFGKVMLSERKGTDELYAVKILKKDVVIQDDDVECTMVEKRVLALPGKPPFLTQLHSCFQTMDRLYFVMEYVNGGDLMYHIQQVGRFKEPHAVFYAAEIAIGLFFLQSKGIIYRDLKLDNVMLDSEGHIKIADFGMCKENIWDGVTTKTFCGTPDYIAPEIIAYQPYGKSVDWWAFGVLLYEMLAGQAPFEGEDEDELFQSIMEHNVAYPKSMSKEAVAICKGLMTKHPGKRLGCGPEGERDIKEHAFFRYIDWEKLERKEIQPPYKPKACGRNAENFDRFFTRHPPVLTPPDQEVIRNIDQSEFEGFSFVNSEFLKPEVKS

SMILES	IC50 (protein kinase C alpha) [µM]	IC50 (protein kinase C beta-1) [µM]	IC50 (protein kinase C beta-2) [µM]	IC50 (protein kinase C gamma) [µM]	IC50 (protein kinase C delta) [µM]	IC50 (protein kinase C epsilon) [µM]	IC50 (protein kinase C zeta) [µM]	IC50 (protein kinase C eta) [µM]	isozyme selectivity (PKC isozymes; Martiny-Baron et al. (1993))	isozyme selectivity (PKC isozymes; Toullec et al. (1991))
CN(C)CCCn1cc(C2=C(c3c[nH]c4ccccc34)C(=O)NC2=O)c2ccccc21 [3-[1-(3-dimethylaminopropyl)-indol-3-yl]-4-(1H-indol-3-yl)-1H-pyrrole-2,5-dione]									slight selectivity for isozymes, alpha and beta versus delta, epsilon, and zeta; also recorded: no differences in the selectivity between alpha and beta-1 isozymes	slight selectivity for the calcium dependent isozymes; also recorded: no isozyme selectivity between alpha, beta-1, beta-2, and gamma
CCOC(=O)N1CCC(Cn2cc(C3=C(c4cn(C)c5ccccc45)C(=O)NC3=O)c3ccccc32)CC1 [Example 69, 3-[1-(1N-ethycarbomate-piperidin-4-yl-methylene)-indol-3-yl]-4-[1-methyindol-3-yl]-1H-pyrrole-2,5-dione]	6.5	0.39	0.21	8.2	7.3	> 100	> 100	3.1		
Cn1cc(C2=C(c3cn(C4CN(C(c5ccccc5)c5ccccc5)C4)c4ccccc34)C(=O)NC2=O)c2ccccc21 [Example 72, 3-[1-(Benzhydryl-azetidin-3-yl)-indol-3-yl)-4-(1-methyl-indol-3-yl)-1H-pyrrole-2,5-dione]	> 100	9.1	2.7	90	> 100	> 100	49	0.042		

More lines, in order of falling IC50 (protein kinase C alpha), values ahead:

IC50 (protein kinase C alpha) [µM]	IC50 (protein kinase C beta-1) [µM]	IC50 (protein kinase C beta-2) [µM]	IC50 (protein kinase C gamma) [µM]	IC50 (protein kinase C delta) [µM]	IC50 (protein kinase C epsilon) [µM]	IC50 (protein kinase C zeta) [µM]	IC50 (protein kinase C eta) [µM]	SMILES	isozyme selectivity (PKC isozymes; Martiny-Baron et al. (1993))	isozyme selectivity (PKC isozymes; Toullec et al. (1991))
3.3	0.32	0.19	3	3.2	70	37	1.4	CC(=O)NCC1OC(OCCCCn2cc(C3=C(c4cn(C)c5ccccc45)C(=O)N(C(C)=O)C3=O)c3ccccc32)CC1OC(C)=O (stereo not shown) [Example 70]		
1.4	0.047	0.033	2.4	1.9	4.6	9.8	0.11	CN1CCC(Cn2cc(C3=C(c4cn(C)c5ccccc45)C(=O)NC3=O)c3ccccc32)CC1 [Example 68, 3-(1-Methyl-indol-3-yl)-4-[1-(1-methyl-piperidin-4-ylmethylene)-indol-3-yl]-1H-pyrrole-2,5-dione]		
